Test results taken from PMC4999848 (Toxins, 2016).
Values joined by “and” are separate entries in the source; they are usually repeats but may differ in a detail not shown here. Identical values can stand only once. “Also recorded” adds a separate entry of the source.

Key:
pancreatic lipase = target: T1, pancreatic lipase (Sus scrofa, UniProt P00591); assay: Deacetylation of 3/15ADON by pancreatic lipase; assay type: in vitro ADME, porcine; conditions: lipase 0.75 mg/mL, PBS pH 7.4, 37 °C, substrate 100 μM
T1 construct: purchased Sigma-Aldrich
Protocol: (§1) Stock solutions of DON, 3ADON and 15ADON at 2 mg/mL were prepared in absolute ethanol and stored at −20 °C. For deacetylation assay, 3- or 15ADON were incubated with cells, explants, bacteria or digestive enzymes after being diluted in PBS^++ at a final concentration of 100 μM. PBS^++ solution containing only ethanol (at 1.5% final concentration) or DON (at 100 μM) were used in parallel as negative and positive control, respectively. For cells and explants, deacetylation assay take place in 6-well plates, wells being filled with 2 mL of PBS^++ containing either ethanol, DON, 3- or 15ADON. For fecal bacteria and digestive enzyme assay, deacetylation assay was conducted in 2 mL Eppendorf tubes filled with 1.5 mL of PBS^++ containing either ethanol, DON, 3- or 15ADON. In vitro intestinal digestion by luminal enzymes was performed using porcine enzymes from Sigma-Aldrich and physiological conditions. […] In all cases, aliquots of the reaction solution were collected immediately (i.e., “time zero” sample) or after the indicated time period at 37 °C and analyzed by HPLC. […]
(§2) Deacetylation was monitoring both in term of disappearance of 3- or 15ADON and formation of DON. […] Quantification was based on calibration with the corresponding standard using Millinium Software (Waters, Saint Quentin Falavier, France).

pancreatin = assay: Deacetylation of 3/15ADON by pancreatin; assay type: in vitro ADME, porcine; conditions: pancreatin 1.23 mg/mL, PBS pH 7.4, 37 °C, substrate 100 μM
Protocol: as §1, §2

trypsin = target: T2, trypsin (Sus scrofa, UniProt P00761); assay: Deacetylation of 3/15ADON by trypsin; assay type: in vitro ADME, porcine; conditions: trypsin 0.35 mg/mL, PBS pH 7.4, 37 °C, substrate 100 μM
T2 construct: purchased Sigma-Aldrich
Protocol: as §1, §2

[1] = Deacetylation of 3/15ADON by liver S9 fraction; assay type: in vitro ADME, human
Protocol: Stock solutions of DON, 3ADON and 15ADON at 2 mg/mL were prepared in absolute ethanol and stored at −20 °C. For deacetylation assay, 3- or 15ADON were incubated with cells, explants, bacteria or digestive enzymes after being diluted in PBS^++ at a final concentration of 100 μM. PBS^++ solution containing only ethanol (at 1.5% final concentration) or DON (at 100 μM) were used in parallel as negative and positive control, respectively. For cells and explants, deacetylation assay take place in 6-well plates, wells being filled with 2 mL of PBS^++ containing either ethanol, DON, 3- or 15ADON. For fecal bacteria and digestive enzyme assay, deacetylation assay was conducted in 2 mL Eppendorf tubes filled with 1.5 mL of PBS^++ containing either ethanol, DON, 3- or 15ADON. In vitro intestinal digestion by luminal enzymes was performed using porcine enzymes from Sigma-Aldrich and physiological conditions. Briefly, 3- or 15ADON were incubated with pepsin (at 1.6 mg/mL corresponding to 900 U/mL), trypsin (at 0.35 mg/mL corresponding to 6000 U/mL), pancreatic lipase (at 0.75 mg/mL corresponding to 18 U/mL) or pancreatin (at 1.23 mg/mL, lipase activity >10 U/mL, protease activity >100 U/mL, amylase activity >100 U/mL). Except for pepsin for which the digestion was conducted in HCl solution at 10 mM (pH 2.3), in vitro digestion was performed in PBS^++ (pH 7.4). Finally, deacetylation assay was also performed with commercial pooled S9 fractions from human liver, small intestine and kidneys as well as with pure recombinant human CES1 and CES2. S9 fractions and CES1/2 were used at 0.1 mg/mL and 5 μg/mL (corresponding to CES activity >20 U/mL), respectively. In all cases, aliquots of the reaction solution were collected immediately (i.e., “time zero” sample) or after the indicated time period at 37 °C and analyzed by HPLC. […] In all cases, the experiments were conducted in triplicate (n = 3).
Deacetylation was monitoring both in term of disappearance of 3- or 15ADON and formation of DON. Measurement of DON, 3ADON and 15ADON concentrations was performed by reversed-phase HPLC using Waters Alliance System equipped with a Waters 2690 XE separation module and a Waters 996 photodiode array detector (Waters, Saint Quentin Falavier, France). The separation was achieved by mean of a LiChroCart column (125 mm × 4 mm) packed with 5 μm RP-18 Purospher gel (Merck, Darmstadt, Germany) and equipped with a LiChroCart precolumn (4 mm × 4 mm) packed with the same material (Merck). The precolumn and column were placed in room temperature. The elution procedure was carried out at 0.7 mL·min^−1 by a methanol–water solvent, using the following conditions: 40% methanol during 2 min followed by an increase in methanol to 50% at 2.1 min. The detection wavelength was set at 237 nm allowing the best signal/baseline ratio for simultaneous detection of the three DON forms in the incubation mediums. Under these conditions, DON and 3/15ADON were clearly separated, the retention time being around 2.7 min and 5.7 min, for DON and 3/15ADON, respectively (Figure 9). Quantification was based on calibration with the corresponding standard using Millinium Software (Waters, Saint Quentin Falavier, France).

[2] = system: pepsin and pancreatic enzymes (pancreatin, trypsin, lipase); assay: Deacetylation of 3/15ADON by luminal digestive enzymes (taken together); assay type: in vitro ADME, porcine; conditions: percentage of sum of specific activities (Figure 8)
Protocol: as §1, §2

recombinant human CES1 = target: T3, recombinant human CES1 (Homo sapiens, UniProt P23141); assay: Deacetylation of 3/15ADON by recombinant CES1; assay type: in vitro ADME; design: purchased R&D Systems; conditions: 5 μg/mL CES1, up to 24 h, data not shown
T3 sequence (P23141 18-567): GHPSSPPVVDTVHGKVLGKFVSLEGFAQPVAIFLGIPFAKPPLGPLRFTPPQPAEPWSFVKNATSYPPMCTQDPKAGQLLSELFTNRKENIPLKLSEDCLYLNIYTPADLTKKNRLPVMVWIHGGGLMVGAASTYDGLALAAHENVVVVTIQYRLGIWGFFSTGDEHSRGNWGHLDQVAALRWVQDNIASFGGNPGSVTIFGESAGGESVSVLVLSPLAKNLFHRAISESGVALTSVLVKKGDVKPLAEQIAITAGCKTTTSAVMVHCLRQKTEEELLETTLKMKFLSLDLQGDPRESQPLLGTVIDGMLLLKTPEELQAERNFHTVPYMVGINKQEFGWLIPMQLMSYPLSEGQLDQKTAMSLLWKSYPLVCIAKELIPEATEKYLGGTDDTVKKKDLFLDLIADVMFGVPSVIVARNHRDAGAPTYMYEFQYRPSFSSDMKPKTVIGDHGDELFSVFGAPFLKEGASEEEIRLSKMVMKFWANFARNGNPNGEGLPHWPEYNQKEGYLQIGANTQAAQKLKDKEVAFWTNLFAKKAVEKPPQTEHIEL
Protocol: as §1, §2

[3] = S9 Liver + Benzil 100 μM (Table 1)
[4] = S9 Liver, without benzil (Table 1)
[5] = S9 liver 0.1 mg/mL, 37 °C, substrate 100 μM (Table 3)

T2 sequence (P00761 9-231): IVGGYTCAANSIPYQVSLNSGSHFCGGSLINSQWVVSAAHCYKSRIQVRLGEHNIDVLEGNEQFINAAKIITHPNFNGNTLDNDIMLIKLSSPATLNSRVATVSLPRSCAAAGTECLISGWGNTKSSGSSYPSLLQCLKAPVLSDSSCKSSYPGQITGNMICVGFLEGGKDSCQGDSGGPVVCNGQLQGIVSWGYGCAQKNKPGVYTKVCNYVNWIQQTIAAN
T1 sequence (P00591 whole entry): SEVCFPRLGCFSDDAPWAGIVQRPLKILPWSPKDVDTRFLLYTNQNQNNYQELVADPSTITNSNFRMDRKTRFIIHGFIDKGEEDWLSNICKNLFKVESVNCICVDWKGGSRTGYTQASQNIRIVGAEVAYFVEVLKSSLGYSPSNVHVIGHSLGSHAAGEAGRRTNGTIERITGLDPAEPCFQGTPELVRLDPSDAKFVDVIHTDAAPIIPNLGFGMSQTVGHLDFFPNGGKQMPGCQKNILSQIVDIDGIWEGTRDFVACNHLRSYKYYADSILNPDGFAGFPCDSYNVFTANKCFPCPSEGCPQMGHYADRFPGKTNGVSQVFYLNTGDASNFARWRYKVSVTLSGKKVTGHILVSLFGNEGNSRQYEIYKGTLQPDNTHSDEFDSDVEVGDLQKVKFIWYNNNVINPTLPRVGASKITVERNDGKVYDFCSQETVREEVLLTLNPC

Row | Compound | Disappearance of 3/15ADON, specific activity (pancreatic lipase) | Disappearance of 3/15ADON, specific activity (pancreatin) | Disappearance of 3/15ADON, specific activity (trypsin) | Disappearance of 3/15ADON, specific activity [1, 3] | Disappearance of 3/15ADON, specific activity [1, 4] | Disappearance of 3/15ADON, specific activity [1, 5] | Contribution to total deacetylation activity: Pancreatic enzymes [2] | Deacetylation activity of CES1 on 3/15ADON (recombinant human CES1)
1 | CC(=O)OC[C@]12[C@H](O)C(=O)C(C)=C[C@H]1O[C@@H]1[C@H](O)C[C@@]2(C)[C@]12CO2 [15ADON, 15-acetyldeoxynivalenol] | 42 ± 18 pmol/min/mg | 26 ± 17 pmol/min/mg | 94 ± 62 pmol/min/mg | 125 ± 15 pmol/min/mg | 166 ± 3.5 pmol/min/mg | 208 pmol/min/mg and 208 ± 41 pmol/min/mg | 26% | failed at observing any deacetylation activity; also recorded: unable to cause the deacetylation
2 | CC(=O)O[C@@H]1C[C@]2(C)[C@@]3(CO)[C@H](O)C(=O)C(C)=C[C@H]3O[C@H]1[C@@]21CO1 [3ADON, 3-acetyldeoxynivalenol] | 48 ± 21 pmol/min/mg | 24 ± 16 pmol/min/mg | 57 ± 19 pmol/min/mg | 1583 ± 39 pmol/min/mg | 1729 ± 27 pmol/min/mg | 1791 pmol/min/mg and 1791 ± 29 pmol/min/mg | 10% | failed at observing any deacetylation activity; also recorded: unable to cause the deacetylation
